# Laboratory results as given in US8481534B2, “5- and 6-membered heterocyclic compounds” (EnVivo Pharmaceuticals, Inc., priority 2008, dated 2013).
# What was measured:
# Human PDE10A1 = Human PDE10A1 (Homo sapiens, UniProt Q9Y233); experiment: hPDE10A1 enzyme inhibition ([3H]-cAMP hydrolysis, scintillation counting); assay type: biochemical; conditions: Human PDE10A1, [3H]-cAMP substrate, 20 minutes at 37° C.; read-out: hPDE10A1 IC50 Band
# Description: 50 μl samples of serially diluted Human PDE10A1 enzyme were incubated with 50 μl of [^3H]-cAMP for 20 minutes (at 37° C.). Reactions were carried out in Greiner 96 deep well 1 ml master-block. The enzyme was diluted in 20 mM Tris HCl pH7.4 and [^3H]-cAMP was diluted in 10 mM MgCl2, 40 mM Tris.HCl pH 7.4. The reaction was terminated by denaturing the PDE enzyme (at 70° C.) after which [^3H]-5′-AMP was converted to [^3H]-adenosine by adding 25 μl snake venom nucleotidase and incubating for 10 minutes (at 37° C.). Adenosine, being neutral, was separated from charged cAMP or AMP by the addition of 200 μl Dowex resin. Samples were shaken for 20 minutes then centrifuged for 3 minutes at 2,500 r.p.m. 50 μl of supernatant was removed and added to 200 μl of MicroScint-20 in white plates (Greiner 96-well Optiplate) and shaken for 30 minutes before reading on Perkin Elmer TopCount Scintillation Counter.
# To check inhibition profile 11 μl of serially diluted inhibitor was added to 50 μl of [^3H]-cAMP and 50 μl of diluted Human PDE10A1 and assay was carried out as in the enzyme activity assay. Data was analysed using Prism software (GraphPad Inc).
# [1] = system: apomorphine induced stereotypes; conditions: rats; cited from earlier work
# [2] = system: rat brain dopamine levels; conditions: rats; cited from earlier work
# [3] = system: haloperidol induced catalepsy; conditions: rats; cited from earlier work
# Human PDE10A1, sequence (Q9Y233 1-779 isoform Q9Y233-1): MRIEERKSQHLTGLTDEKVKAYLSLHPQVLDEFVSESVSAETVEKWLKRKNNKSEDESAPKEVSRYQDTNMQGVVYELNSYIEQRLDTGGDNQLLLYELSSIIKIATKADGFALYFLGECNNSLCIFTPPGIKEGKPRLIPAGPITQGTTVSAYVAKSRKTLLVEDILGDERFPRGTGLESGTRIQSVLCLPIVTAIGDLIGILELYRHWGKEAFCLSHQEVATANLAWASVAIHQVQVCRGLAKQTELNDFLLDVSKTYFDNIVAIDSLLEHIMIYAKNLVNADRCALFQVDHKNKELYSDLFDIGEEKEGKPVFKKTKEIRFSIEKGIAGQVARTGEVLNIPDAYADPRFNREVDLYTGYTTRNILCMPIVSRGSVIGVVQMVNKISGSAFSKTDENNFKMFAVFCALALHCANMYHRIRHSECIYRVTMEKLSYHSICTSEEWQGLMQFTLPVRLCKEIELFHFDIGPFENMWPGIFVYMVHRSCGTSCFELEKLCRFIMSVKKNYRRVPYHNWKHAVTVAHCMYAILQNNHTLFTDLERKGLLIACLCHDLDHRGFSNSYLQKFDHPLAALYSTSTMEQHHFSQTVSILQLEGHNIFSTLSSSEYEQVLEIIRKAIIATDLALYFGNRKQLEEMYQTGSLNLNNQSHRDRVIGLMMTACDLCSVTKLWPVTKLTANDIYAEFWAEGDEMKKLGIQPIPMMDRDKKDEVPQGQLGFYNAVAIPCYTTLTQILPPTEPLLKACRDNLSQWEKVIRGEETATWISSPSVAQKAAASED
SMILES,IC50 (Human PDE10A1),further results
COc1ccc(C2=C(c3ccc(OCc4ccc5ccccc5n4)cc3)COC2=O)cc1 [Example 14],≤ 0.05 µM,–
"O=C1OCC(c2ccncc2)=C1c1ccc(OCc2ccc3ccccc3n2)cc1 [Example 37, 4-(Pyridin-4-yl)-3-(4-(quinolin-2-ylmethoxy)phenyl)furan-2(5H)-one]",≤ 0.05 µM,–
"COc1ccc(C2=C(c3ccc(OCc4ccc5ccccc5n4)cc3)C(=O)OC2)cc1F [Example 53, 4-(3-fluoro-4-methoxyphenyl)-3-(4-(quinolin-2-ylmethoxy)phenyl)furan-2(5H)-one]",≤ 0.05 µM,–
"COc1ccc(C2=C(c3ccc(OCc4ccc5ccccc5n4)cc3)C(=O)OC2)cc1Cl [Example 54, 4-(3-Chloro-4-methoxyphenyl)-3-(4-(quinolin-2-ylmethoxy)phenyl)furan-2(5H)-one]",≤ 0.05 µM,–
"COc1ccc(C2=C(c3ccc(OCc4ccc5ccccc5n4)cc3)C(=O)OC2)cc1C#N [Example 55, 2-Methoxy-5-(5-oxo-4-(4-(quinolin-2-ylmethoxy)phenyl)-2,5-dihydrofuran-3-yl)benzonitrile]",≤ 0.05 µM,–
"COc1ccc(C2=C(c3ccc(OCc4ccc5ccccc5n4)cc3)C(=O)OC2)cc1 [Example 59, 4-(4-Methoxyphenyl)-3-(4-(quinolin-2-ylmethoxy)phenyl)furan-2(5H)-one]",≤ 0.05 µM,–
"CN1CC(c2ccncc2)=C(c2ccc(OCc3ccc4ccccc4n3)cc2)C1=O [Example 94, 1-Methyl-4-(pyridin-4-yl)-3-(4-(quinolin-2-ylmethoxy)phenyl)-1H-pyrrol-2(5H)-one]",≤ 0.05 µM,–
"COc1ccc(C2=C(c3ccc(OCc4ccc5ccccc5n4)cc3)C(=O)N(C)C2)cc1 [Example 125, 4-(4-Methoxyphenyl)-1-methyl-3-(4-(quinolin-2-ylmethoxy)phenyl)-1H-pyrrol-2(5H)-one]",≤ 0.05 µM,–
"COc1ccc(C2=C(c3ccc(OCc4ccc5ccccc5n4)cc3Cl)COC2=O)cc1 [Example 424, 4-(2-chloro-4-(quinolin-2-ylmethoxy)phenyl)-3-(4-methoxyphenyl)furan-2(5H)-one]",> 0.05 µM,–
"O=C1OCC(N2CCOCC2)=C1c1ccc(OCc2ccc3ccccc3n2)cc1 [Example 1085, 4-Morpholino-3-(4-(quinolin-2-ylmethoxy)phenyl)furan-2(5H)-one]",> 0.05 µM,–
"O=c1o[nH]c(-c2ccncc2)c1-c1ccc(OCc2ccc3ccccc3n2)cc1 [Example 1094, 3-(Pyridin-4-yl)-4-(4-(quinolin-2-ylmethoxy)phenyl)isoxazol-5(2H)-one]",≤ 0.05 µM,–
"COc1ccc(C2=C(c3ccc(OCc4cccc(C)n4)cc3)COC2=O)cc1 [Example 1095, 3-(4-methoxyphenyl)-4-(4-((6-methylpyridin-2-yl)methoxy)phenyl)furan-2(5H)-one]",> 0.05 µM,–
"O=c1[nH][nH]c(-c2ccncc2)c1-c1ccc(OCc2ccc3ccccc3n2)cc1 [Example 1096, 5-(Pyridin-4-yl)-4-(4-(quinolin-2-ylmethoxy)phenyl)-1H-pyrazol-3(2H)-one]",> 0.05 µM,–
"Cn1[nH]c(-c2ccncc2)c(-c2ccc(OCc3ccc4ccccc4n3)cc2)c1=O [Example 1097, 2-Methyl-5-(pyridin-4-yl)-4-(4-(quinolin-2-ylmethoxy)phenyl)-1H-pyrazol-3(2H)-one]",> 0.05 µM,–
"O=C1OCC(c2cccnc2)=C1c1ccc(OCc2ccc3ccccc3n2)cc1 [Example 1098, 4-(Pyridin-3-yl)-3-(4-(quinolin-2-ylmethoxy)phenyl)furan-2(5H)-one]",> 0.05 µM,–
"O=C1OCC(c2ccncc2)=C1c1ccc(OCc2ccc3ccccc3n2)c(Cl)c1 [Example 1099, 3-(3-chloro-4-(quinolin-2-ylmethoxy)phenyl)-4-(pyridin-4-yl)furan-2(5H)-one]",> 0.05 µM,–
COc1ccc(Cc2nccc3cc(OC)c(OC)cc23)cc1OC [papaverine],–,apomorphine induced stereotypes [1]: reduces; rat brain dopamine levels [2]: reduces; haloperidol induced catalepsy [3]: increases
